Assay results reported in the supplement of paper PMC11061612.

Tests used:
Experiment in all cases: combination Emax (second highest fraction inhibited in the dose matrix, 72 h); higher = more inhibition; extreme values may be limits of the assay
UACC-257 (Melanoma) = system: UACC-257 (Melanoma)
Summary of the method: (§1)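 Cell lines in DMEM/F12 or RPMI with 10% FBS were plated in 1536-well plates, held 24 hours at 37°C, 5% CO2, then given two-drug dose matrices for 72 hours (DMSO typically 0.2%). Viability was read by CellTiter-Glo 2.0 luminescence and scaled as inhibition from 0 (vehicle wells) to 1 (blank wells). Combination Emax is the second-highest inhibition in the matrix; Bliss excess is observed combination effect minus expected EA + EB − EA·EB, EA and EB being single-agent effects.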

T47D (Breast Carcinoma) = system: T47D (Breast Carcinoma)
Summary of the method: as §1

[1] = system: SNU-C2B (Colorectal Carcinoma)
Summary of the method: as §1

[2] = system: OVCAR-3 (Ovarian Carcinoma)
Summary of the method: as §1

[3] = system: DBTRG-05MG (Glioblastoma)
Summary of the method: as §1

[4] = system: LS-1034 (Colorectal Carcinoma)
Summary of the method: as §1

[5] = system: NMC-G1 (Low Grade Glioma)
Summary of the method: as §1

IST-MEL1 (Melanoma) = system: IST-MEL1 (Melanoma)
Summary of the method: as §1

WM35 (Melanoma) = system: WM35 (Melanoma)
Summary of the method: as §1

[6] = system: NCI-H1341 (Small Cell Lung Carcinoma)
Summary of the method: as §1

[7] = system: SKG-IIIa (Cervical Carcinoma)
Summary of the method: as §1

[8] = system: BHT-101 (Thyroid Gland Carcinoma)
Summary of the method: as §1

[9] = system: NCI-H596 (Other Solid Carcinomas)
Summary of the method: as §1

[10] = system: OAW-28 (Ovarian Carcinoma)
Summary of the method: as §1

NCI-H2373 (Mesothelioma) = system: NCI-H2373 (Mesothelioma)
Summary of the method: as §1

[11] = system: C-33-A (Cervical Carcinoma)
Summary of the method: as §1

[12] = system: COR-L88 (Small Cell Lung Carcinoma)
Summary of the method: as §1

[13] = system: SCC-4 (Oral Cavity Carcinoma)
Summary of the method: as §1

[14] = system: KP-4 (Pancreatic Carcinoma)
Summary of the method: as §1

[15] = system: MM1S (Plasma Cell Myeloma)
Summary of the method: as §1

Structure (SMILES) | combination Emax (UACC-257 (Melanoma)) | combination Emax (T47D (Breast Carcinoma)) | combination Emax [1] | combination Emax [2] | combination Emax [3] | combination Emax [4] | combination Emax [5] | combination Emax (IST-MEL1 (Melanoma)) | combination Emax (WM35 (Melanoma)) | combination Emax [6] | combination Emax [7] | combination Emax [8] | combination Emax [9] | combination Emax [10] | combination Emax (NCI-H2373 (Mesothelioma)) | combination Emax [11] | combination Emax [12] | combination Emax [13] | combination Emax [14] | combination Emax [15]
C=CCn1c(=O)c2cnc(Nc3ccc(N4CCN(C)CC4)cc3)nc2n1-c1cccc(C(C)(C)O)n1 [AZD1775] + C[C@@H]1COCCN1C2=NC(=NC(=C2)C3(CC3)[S@](=N)(=O)C)C4=C5C=CNC5=NC=C4 [AZD6738] (first compound max 1 µM, partner max 10 µM) | 0.344 | 0.412 | 0.726 | 0.74 | 0.332 | 0.763 | 0.451 | 0.797 | 0.659 | 0.941 | 0.586 | 0.771 | 0.663 | 0.522 | 0.608 | 0.978 | 0.822 | 0.763 |  | 
Cc1c2c(nn1C)CSCc1cc(n(C)n1)CSc1cc(c3ccccc3c1)OCCCc1c(C(=O)O)n(C)c3c-2c(Cl)ccc13 [AZD5991] + CCN(CCO)CCCOc1ccc2c(Nc3cc(CC(=O)Nc4cccc(F)c4)[nH]n3)ncnc2c1 [AZD2811] (first compound max 1 µM, 7x7, partner max 1 µM) | 0.322 | 0.708 | 0.17 | 0.378 | 0.225 | 0.227 | 0.305 | 0.349 | 0.243 | 0.341 | 0.235 | 0.267 |  | 0.378 | 0.267 | 0.275 | 0.36 | 0.663 | 0.667 | 0.982
COc1nnc2ccc(N3CCC(c4ccc(OCCN5CCN(C)C(=O)[C@H]5C)cc4)CC3)nn12 [AZD5153] + C=CCn1c(=O)c2cnc(Nc3ccc(N4CCN(C)CC4)cc3)nc2n1-c1cccc(C(C)(C)O)n1 [AZD1775] (first compound max 1 µM, partner max 1 µM) | 0.359 | 0.505 | 0.584 | 0.852 | 0.369 | 0.613 |  | 0.524 | 0.467 | 0.972 | 0.546 | 0.737 | 0.803 | 0.701 | 0.399 | 0.956 | 0.677 | 0.568 | 0.684 | 0.734
NC1(C(=O)N[C@@H](CCO)c2ccc(Cl)cc2)CCN(c2ncnc3[nH]ccc23)CC1 [Capivasertib] + CC(C)n1c(=O)n(C)c2cnc3cc(F)c(-c4ccc(OCCCN5CCCCC5)nc4)cc3c21 [AZD1390] (first compound max 10 µM, 7x7, partner max 0.3 µM) | 0.26 | 0.37 | 0.303 | 0.227 | 0.243 | 0.322 |  | 0.359 | 0.259 | 0.532 | 0.244 | 0.341 | 0.542 | 0.119 | 0.545 | 0.675 | 0.0851 | 0.227 | 0.355 | 0.999
COc1nnc2ccc(N3CCC(c4ccc(OCCN5CCN(C)C(=O)[C@H]5C)cc4)CC3)nn12 [AZD5153] + Cn1cnc2c(F)c(Nc3ccc(Br)cc3Cl)c(C(=O)NOCCO)cc21 [Selumetinib] (first compound max 1 µM, 7x7, partner max 10 µM) | 0.825 | 0.549 | 0.573 | 0.54 | 0.399 | 0.814 |  | 0.389 | 0.968 | 0.559 | 0.537 | 0.966 | 0.725 | 0.498 | 0.439 | 0.573 | 0.247 | 0.509 | 0.597 | 0.947
CCc1c2c(nc3ccc(O)cc13)-c1cc3c(c(=O)n1C2)COC(=O)[C@]3(O)CC [SN-38] + O=C(c1cc(Cc2n[nH]c(=O)c3ccccc23)ccc1F)N1CCN(C(=O)C2CC2)CC1 [Olaparib] (first compound max 0.3 µM, 7x7, partner max 10 µM) | 0.343 | 0.625 | 0.478 | 0.687 | 0.407 | 0.553 | 0.246 | 0.897 | 0.448 | 0.99 | 0.389 |  |  |  | 0.801 | 0.747 | 0.535 | 0.847 | 0.817 | 
NC1(C(=O)N[C@@H](CCO)c2ccc(Cl)cc2)CCN(c2ncnc3[nH]ccc23)CC1 [Capivasertib] + C[C@@H]1COCCN1C2=NC(=NC(=C2)C3(CC3)[S@](=N)(=O)C)C4=C5C=CNC5=NC=C4 [AZD6738] (first compound max 10 µM, 7x7, partner max 10 µM) | 0.389 | 0.481 | 0.647 | 0.461 | 0.372 | 0.746 |  | 0.785 | 0.311 | 0.928 | 0.5 | 0.681 | 0.575 | 0.515 | 0.707 | 0.946 | 0.435 | 0.558 | 0.597 | 0.99
